ChEMBL document CHEMBL1201862, “PubChem BioAssay data set” (2004)
“And” between values parts separate entries of the source, which are not always exact repeats. Equal entries are not always repeated. The source made the active and inactive calls.

Tests used:
[1] = target: Glyceraldehyde-3-phosphate dehydrogenase (Homo sapiens, UniProt P04406)
[2] = target: T1, Alkaline phosphatase, tissue-nonspecific isozyme (Homo sapiens, UniProt P05186); experiment: SAR assay for compounds inhibiting TNAP in the absence of phosphate acceptor performed in a luminescent assay. [Related pubchem assays (depositor defined):AID1548, AID1659, AID518]
T1 sequence (P05186 whole entry): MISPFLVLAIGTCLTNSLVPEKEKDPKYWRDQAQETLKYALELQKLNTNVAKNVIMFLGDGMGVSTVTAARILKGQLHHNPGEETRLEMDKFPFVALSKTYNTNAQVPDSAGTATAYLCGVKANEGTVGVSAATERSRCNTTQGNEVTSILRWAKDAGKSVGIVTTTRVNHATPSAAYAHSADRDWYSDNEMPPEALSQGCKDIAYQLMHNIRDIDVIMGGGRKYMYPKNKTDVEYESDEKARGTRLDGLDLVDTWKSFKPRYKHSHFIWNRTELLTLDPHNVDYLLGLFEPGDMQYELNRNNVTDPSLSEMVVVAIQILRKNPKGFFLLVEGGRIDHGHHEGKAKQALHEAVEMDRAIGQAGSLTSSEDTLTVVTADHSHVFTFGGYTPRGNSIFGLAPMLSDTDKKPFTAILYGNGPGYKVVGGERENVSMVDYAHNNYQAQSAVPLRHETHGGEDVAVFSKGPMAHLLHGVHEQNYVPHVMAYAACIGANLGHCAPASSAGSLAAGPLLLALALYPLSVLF

[3] = target: Alkaline phosphatase, placental type (Homo sapiens, UniProt P05187); experiment: PLAP enzyme inhibitors, confirmation, biochemical, luminescence (AID 1512); assay type: functional
[4] = target: T1, Alkaline phosphatase, tissue-nonspecific isozyme; experiment: human TNAP enzyme inhibitors, SAR follow-up, biochemical, luminescent, dose response (AID 1056)
[5] = target: T2, Coagulation factor XII (Homo sapiens, UniProt P00748); experiment: Factor XIIa Dose Response Confirmation from Single Well HTS. [Related pubchem assays (depositor defined):AID701]; assay type: functional
T2 sequence (P00748 whole entry): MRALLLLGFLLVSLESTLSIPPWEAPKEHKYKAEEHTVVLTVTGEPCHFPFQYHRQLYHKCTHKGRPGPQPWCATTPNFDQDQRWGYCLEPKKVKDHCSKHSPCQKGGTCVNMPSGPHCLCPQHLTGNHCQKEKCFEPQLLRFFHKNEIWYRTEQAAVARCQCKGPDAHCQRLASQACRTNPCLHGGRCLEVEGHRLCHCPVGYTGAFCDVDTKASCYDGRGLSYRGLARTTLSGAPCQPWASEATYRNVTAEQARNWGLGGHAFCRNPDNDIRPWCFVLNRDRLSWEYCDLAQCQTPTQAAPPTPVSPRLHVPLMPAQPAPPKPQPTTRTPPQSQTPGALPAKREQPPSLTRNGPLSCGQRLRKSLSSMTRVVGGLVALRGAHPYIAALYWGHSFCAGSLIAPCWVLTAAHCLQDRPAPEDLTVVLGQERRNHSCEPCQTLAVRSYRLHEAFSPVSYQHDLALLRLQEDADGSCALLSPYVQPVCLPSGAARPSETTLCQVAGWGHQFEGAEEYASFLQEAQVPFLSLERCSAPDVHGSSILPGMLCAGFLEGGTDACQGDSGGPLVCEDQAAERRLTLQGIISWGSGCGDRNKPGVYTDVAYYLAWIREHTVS

[6] = inhibitors of intracellular T. cruzi replication, confirmation, NIH3T3 host cells, beta-gal luminescence (AID 2044); assay type: functional, cell-based;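 further: intracellular parasites grown in NIH/3T3 mouse fibroblasts as host cells; luminescent beta-galactosidase reporter signal from transgenic T. cruzi replicating inside host cells; inhibitors lower the luminescence signal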
[7] = cytotoxicity toward NIH3T3 fibroblasts, dose response, counter-screen, cell-based, ATP luminescence, mouse fibroblasts (AID 2010); assay type: functional;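 further: cells exposed to compound for about 90 hours before reading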
[8] = target: T3, Ubiquitin-conjugating enzyme E2 N (Homo sapiens, UniProt P61088); assay type: functional;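 further: Dose-response confirmation in a TR-FRET assay detecting UBC13-driven polyubiquitin chain formation, inhibition measured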
T3 sequence (P61088 whole entry): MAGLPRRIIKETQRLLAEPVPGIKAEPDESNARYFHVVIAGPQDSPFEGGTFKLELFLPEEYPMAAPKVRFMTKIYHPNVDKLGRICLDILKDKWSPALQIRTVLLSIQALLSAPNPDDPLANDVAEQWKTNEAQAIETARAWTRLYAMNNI

[9] = target: E3 ubiquitin-protein ligase Mdm2/Protein Mdm4 (Homo sapiens, UniProt O15151+Q00987); experiment: Mdm2-MdmX interaction inhibitors, dose response, luminescence detection (AID 504593); assay type: functional
[10] = target: T4, Heat shock factor protein 1 (Mus musculus, UniProt P38532); experiment: inhibition of MG132-induced HSE-luciferase signal, confirmation, cell-based, NIH3T3, luminescence, dose retest (AID 2382); assay type: functional;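 further: NIH3T3 fibroblasts with HSF1-driven luciferase reporter stressed by proteasome inhibitor MG132; luminescence from HSF1-driven luciferase expression after 8 hours of MG132 stress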
T4 sequence (P38532 whole entry): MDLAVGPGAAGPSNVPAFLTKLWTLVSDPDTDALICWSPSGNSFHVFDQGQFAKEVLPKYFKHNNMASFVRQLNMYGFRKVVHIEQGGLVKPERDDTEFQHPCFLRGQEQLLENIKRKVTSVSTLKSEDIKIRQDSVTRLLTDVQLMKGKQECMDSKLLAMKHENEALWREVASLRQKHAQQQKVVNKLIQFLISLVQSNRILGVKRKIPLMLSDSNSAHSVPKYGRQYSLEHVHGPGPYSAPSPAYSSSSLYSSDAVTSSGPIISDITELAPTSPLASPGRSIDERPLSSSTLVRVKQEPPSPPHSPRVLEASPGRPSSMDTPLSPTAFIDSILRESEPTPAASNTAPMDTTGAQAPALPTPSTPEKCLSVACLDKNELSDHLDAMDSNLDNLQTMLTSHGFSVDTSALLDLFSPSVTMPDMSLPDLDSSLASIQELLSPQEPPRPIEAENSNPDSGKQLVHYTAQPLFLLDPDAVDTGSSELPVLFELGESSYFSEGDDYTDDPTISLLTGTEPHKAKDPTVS

[11] = target: Peroxisome proliferator-activated receptor gamma (Homo sapiens, UniProt P37231); experiment: PPARg partial agonists, dose response, cell-based, luminescence, assay provider (AID 504447); assay type: functional
[12] = test system: Streptococcus sp. 'group A'; experiment: growth inhibition of control SK(-) GAS strain, dose response, counter-screen for streptokinase expression inhibitor project, luminescence, kanamycin, BacTiterGlo, confirmation (AID 1900); assay type: functional, organism-based
[13] = test system: Streptococcus; experiment: Group A Streptococcus viability loss, dose response, counter-screen for streptokinase expression inhibitor project, luminescence, BacTiterGlo (AID 1915); assay type: functional, organism-based;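 further: potency for reduction of bacterial viability or growth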
[14] = THP-1 cell cytotoxicity, dose response, cytotoxicity control for non-replicating M. tuberculosis project (AID 489025); assay type: functional
[15] = HepG2 cell cytotoxicity, dose response, cytotoxicity control for non-replicating M. tuberculosis project (AID 489018); assay type: functional; details: Mycobacterium tuberculosis
[16] = Vero E6 cell cytotoxicity, dose response, cytotoxicity control for non-replicating M. tuberculosis project, secondary assay (AID 492998); assay type: functional, VeroE6; details: Vero C1008
[17] = target: T5, Microphthalmia-associated transcription factor (Homo sapiens, UniProt O75030); experiment: TRPM1 promoter luciferase signal decrease, dose response, MITF inhibitor project, cell-based, SK-MEL-5, cherry-picked, set 3 (AID 493073); assay type: functional
T5 sequence (O75030 whole entry): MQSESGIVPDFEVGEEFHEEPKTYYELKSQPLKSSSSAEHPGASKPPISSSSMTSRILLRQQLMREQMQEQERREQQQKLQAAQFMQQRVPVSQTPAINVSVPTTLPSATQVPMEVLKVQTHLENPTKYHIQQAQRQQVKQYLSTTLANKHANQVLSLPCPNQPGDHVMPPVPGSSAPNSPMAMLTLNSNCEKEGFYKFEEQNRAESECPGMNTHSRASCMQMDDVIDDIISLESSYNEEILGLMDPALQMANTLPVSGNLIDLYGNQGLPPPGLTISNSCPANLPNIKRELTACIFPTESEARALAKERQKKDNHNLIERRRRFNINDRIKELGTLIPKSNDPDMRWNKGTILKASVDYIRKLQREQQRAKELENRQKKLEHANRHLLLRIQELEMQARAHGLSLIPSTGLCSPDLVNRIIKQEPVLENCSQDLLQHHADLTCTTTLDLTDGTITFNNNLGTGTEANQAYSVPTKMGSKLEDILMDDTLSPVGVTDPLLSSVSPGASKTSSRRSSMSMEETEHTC

[18] = cells; assay type: functional
[19] = target: Protein Wnt-3a (Mus musculus, UniProt P27467); experiment: Wnt3a-driven reporter signaling inhibition, dose response, selectivity assay for Gli-SUFU antagonist project, Wnt-LIGHT cells, luminescence (AID 651570); assay type: functional; details: read-out: IC50_Mean;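 further: Wnt-LIGHT reporter cells stimulated with conditioned medium from Wnt3a-producing cells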
[20] = target: Troponin, cardiac muscle (Homo sapiens, UniProt P19429+P45379+P63316); experiment: Fluorescence-based biochemical high throughput dose response assay for activators of the calcium sensitivity of cardiac Regulated Thin Filaments (RTF). [Related pubchem assays (depositor defined):AID493008, AID493018, AID504382, AID504383]; assay type: protein-complex assay

Chain of Alkaline phosphatase, placental type (P05187 whole entry): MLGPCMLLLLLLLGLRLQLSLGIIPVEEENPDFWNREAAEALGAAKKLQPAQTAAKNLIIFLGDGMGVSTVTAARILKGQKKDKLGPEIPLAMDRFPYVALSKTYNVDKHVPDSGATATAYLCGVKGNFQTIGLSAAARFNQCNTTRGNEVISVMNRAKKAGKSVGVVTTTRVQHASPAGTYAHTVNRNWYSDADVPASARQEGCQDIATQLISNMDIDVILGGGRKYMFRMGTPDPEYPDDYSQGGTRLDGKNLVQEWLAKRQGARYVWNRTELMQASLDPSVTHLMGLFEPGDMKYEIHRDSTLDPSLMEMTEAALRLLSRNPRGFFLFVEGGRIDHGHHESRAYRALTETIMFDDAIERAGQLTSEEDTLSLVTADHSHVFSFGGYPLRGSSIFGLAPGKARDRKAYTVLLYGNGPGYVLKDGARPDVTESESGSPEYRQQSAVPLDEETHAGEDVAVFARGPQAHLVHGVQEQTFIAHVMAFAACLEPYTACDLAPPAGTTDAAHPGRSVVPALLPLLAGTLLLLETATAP
Chain of Protein Wnt-3a (P27467 whole entry): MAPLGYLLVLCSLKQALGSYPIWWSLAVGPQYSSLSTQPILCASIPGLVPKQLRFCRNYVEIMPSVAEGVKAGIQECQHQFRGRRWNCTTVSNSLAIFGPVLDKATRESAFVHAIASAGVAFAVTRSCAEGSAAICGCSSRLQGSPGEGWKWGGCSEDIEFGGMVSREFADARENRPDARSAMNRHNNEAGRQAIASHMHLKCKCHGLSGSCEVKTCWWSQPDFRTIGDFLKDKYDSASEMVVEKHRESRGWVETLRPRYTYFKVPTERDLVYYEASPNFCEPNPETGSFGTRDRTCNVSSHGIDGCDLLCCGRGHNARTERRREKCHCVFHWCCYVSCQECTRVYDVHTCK
Chain of Glyceraldehyde-3-phosphate dehydrogenase (P04406 whole entry): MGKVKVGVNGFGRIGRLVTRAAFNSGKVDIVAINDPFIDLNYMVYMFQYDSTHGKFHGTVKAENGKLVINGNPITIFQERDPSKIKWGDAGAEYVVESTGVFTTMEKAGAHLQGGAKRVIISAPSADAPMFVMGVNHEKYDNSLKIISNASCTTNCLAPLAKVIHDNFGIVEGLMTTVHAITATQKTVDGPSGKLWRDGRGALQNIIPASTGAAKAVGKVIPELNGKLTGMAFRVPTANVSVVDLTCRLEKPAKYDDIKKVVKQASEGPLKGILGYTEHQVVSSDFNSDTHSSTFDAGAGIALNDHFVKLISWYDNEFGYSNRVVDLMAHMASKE
Chain of E3 ubiquitin-protein ligase Mdm2/Protein Mdm4 (Q00987 whole entry): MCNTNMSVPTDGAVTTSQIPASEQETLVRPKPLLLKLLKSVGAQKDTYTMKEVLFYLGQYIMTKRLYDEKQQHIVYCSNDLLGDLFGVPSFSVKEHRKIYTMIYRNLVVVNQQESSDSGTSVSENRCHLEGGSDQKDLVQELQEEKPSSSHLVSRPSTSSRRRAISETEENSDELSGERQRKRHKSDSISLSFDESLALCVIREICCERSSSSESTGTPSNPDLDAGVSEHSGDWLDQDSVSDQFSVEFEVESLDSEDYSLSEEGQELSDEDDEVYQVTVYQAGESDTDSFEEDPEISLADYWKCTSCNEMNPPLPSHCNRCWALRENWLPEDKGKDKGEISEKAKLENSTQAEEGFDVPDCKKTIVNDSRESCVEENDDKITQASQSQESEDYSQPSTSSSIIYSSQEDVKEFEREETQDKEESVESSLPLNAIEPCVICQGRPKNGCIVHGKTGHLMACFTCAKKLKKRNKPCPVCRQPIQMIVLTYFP
Chain of E3 ubiquitin-protein ligase Mdm2/Protein Mdm4 (O15151 whole entry): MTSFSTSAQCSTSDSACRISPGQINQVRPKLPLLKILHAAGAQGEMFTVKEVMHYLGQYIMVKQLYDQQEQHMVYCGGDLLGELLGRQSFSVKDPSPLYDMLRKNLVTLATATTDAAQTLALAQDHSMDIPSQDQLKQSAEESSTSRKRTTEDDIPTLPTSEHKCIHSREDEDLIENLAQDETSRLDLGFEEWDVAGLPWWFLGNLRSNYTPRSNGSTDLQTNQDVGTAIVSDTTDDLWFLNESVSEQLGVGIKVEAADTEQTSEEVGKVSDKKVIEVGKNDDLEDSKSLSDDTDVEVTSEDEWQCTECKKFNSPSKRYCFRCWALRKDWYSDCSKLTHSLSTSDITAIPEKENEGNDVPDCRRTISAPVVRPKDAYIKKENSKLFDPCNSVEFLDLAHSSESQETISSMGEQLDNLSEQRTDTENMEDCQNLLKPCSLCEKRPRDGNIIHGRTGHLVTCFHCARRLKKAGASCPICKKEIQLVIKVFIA
Chain of Peroxisome proliferator-activated receptor gamma (P37231 whole entry): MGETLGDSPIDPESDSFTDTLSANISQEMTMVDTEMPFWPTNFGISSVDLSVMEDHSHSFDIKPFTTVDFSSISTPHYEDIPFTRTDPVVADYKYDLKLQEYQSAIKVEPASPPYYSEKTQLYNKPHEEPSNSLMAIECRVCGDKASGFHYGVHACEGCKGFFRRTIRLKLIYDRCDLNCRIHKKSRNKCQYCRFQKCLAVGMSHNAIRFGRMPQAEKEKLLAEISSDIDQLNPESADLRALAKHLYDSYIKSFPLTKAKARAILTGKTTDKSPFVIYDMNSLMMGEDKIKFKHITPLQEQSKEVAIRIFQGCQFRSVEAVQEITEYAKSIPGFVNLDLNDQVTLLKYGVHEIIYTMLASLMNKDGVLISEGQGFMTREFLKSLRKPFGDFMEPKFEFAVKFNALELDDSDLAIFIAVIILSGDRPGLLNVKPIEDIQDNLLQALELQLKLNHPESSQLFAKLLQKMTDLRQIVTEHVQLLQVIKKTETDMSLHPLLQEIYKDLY

Structure (SMILES): COc1ccc(C)cc1S(=O)(=O)Nc1cccnc1
- IC50 [1]: > 100 µM (not active)
- IC50 [2]: 16.6 µM (active) and 16.4 µM (active)
- IC50 [3]: > 100 µM (inactive)
- IC50 [4]: 2.34 µM (active) and 1.6 µM (active)

Structure (SMILES): CC(C)CN(CC(C)C)S(=O)(=O)N1CCC(C(=O)NCCc2ccc(Cl)cc2)CC1
- IC50 [5]: > 50 µM (inactive)

Structure (SMILES): COc1ccc(-c2cc3c(=O)n(CC(=O)NCCCN4CCC(N5CCCCC5)CC4)nc(C)n3n2)cc1
- EC50 [6]: 3.09 µM (active)
- EC50 [7]: > 60 µM (not active)
- IC50 [8]: > 20 µM (inactive)
- IC50 [9]: 9.38 µM (active)

Structure (SMILES): Cc1cc(C(=O)CN2C(=O)C(=O)N(Cc3ccccc3)C2=O)c(C)n1-c1ccc2c(c1)OCCO2
- EC50 [10]: > 195 µM (not active)
- EC50 [11]: 15 µM (active)

Structure (SMILES): CCCCCCn1c(=O)c(C(=O)Nc2cnccn2)c(O)c2ccccc21
- EC50 [12]: 3 µM (active)
- EC50 [13]: 13 µM (active)
- CC50 [14]: 3.51 µM (active)
- CC50 [15]: 10.2 µM (active)
- CC50 [16]: 7.38 µM (active)
- AC50 [17]: 3.68 µM (active)
- IC50 [18]: 5.03 µM (active)
- IC50 [19]: 3.55 µM (active)

Structure (SMILES): Oc1[nH]nc(C(F)(F)F)c1/C=N/c1cccc(Cl)c1
- EC50 [20]: > 71.5 µM (inactive)
